According to paper PMC11243327, “Design, Synthesis, Antitumor, and Antiplasmodial Evaluation of New 7-Chloroquinoline–Benzimidazole Hybrids” (Molecules, 2024):
Where two headings read alike, the source gives them in different places.

Experiments:
[1] = test system: HeLa (human cervical adenocarcinoma); conditions: previously published result, cited from earlier work
[2] = test system: HL-60 (acute promyelocytic leukemia); set-up: method as in PMID 36677600; conditions: previously published result, ref [19]; cited from earlier work
HuT78 (T-cell lymphoma) [3] = test system: HuT78 (T-cell lymphoma); set-up: method as in PMID 36677600; conditions: previously published result, ref [19]; cited from earlier work
[4] = test system: CaCo-2 (human colorectal adenocarcinoma); conditions: previously published result, cited from earlier work
[5] = test system: THP-1 (acute monocytic leukemia); set-up: method as in PMID 36677600; conditions: previously published result, ref [19]; cited from earlier work
[6] = test system: MRC-5 (human fetal lung fibroblasts); set-up: method as in PMID 36677600; conditions: previously published result, ref [19]; cited from earlier work
[7] = test system: P. falciparum 3D7 (CQ-susceptible), erythrocytic stage; assay: Antiplasmodial HRP2 assay, Pf3D7; assay type: cell-based, Plasmodium falciparum; conditions: Plasmodium falciparum, 3D7, 72 h; chloroquine-sensitive strain, three days incubation, HRP2-ELISA, mean ± SD, n ≥ 2; read-out: IC50 Pf3D7
Procedure: (§1) Method used to evaluate the antiplasmodial activity of quinoline–benzimidazole hybrids against two P. falciparum strains, chloroquine-sensitive (Pf3D7) and chloroquine-resistant (PfDd2), was previously described. […] Chloroquine was used as a positive control.
(§2) In brief, 96-well plates were pre-coated with the tested compounds at 1:3 dilution before ring-stage parasites were added to the complete culture medium at a hematocrit of 1.5% and a parasitemia of 0.05%. […] All compounds were analyzed in duplicate in at least two independent experiments. The IC50 was determined by nonlinear regression analysis of the logarithmic concentration-response curves using the drc package v3.0-1 of R v4.1.0 [56].

[8] = test system: MRC-5 (human fetal lung fibroblasts); assay: Antiproliferative MTT assay, MRC-5; assay type: cell-based; conditions: Homo sapiens, MRC5, non-tumor cell line, 72 h, mean ± SD of three experiments
Procedure: (§3) The effect of the new synthesized compounds was tested on five human tumor cell lines, HeLa (human cervical adenocarcinoma; from ATCC), CaCo-2 (human colorectal adenocarcinoma), HL-60 (acute promyelocytic leukemia), HuT78 (T-cell lymphoma), and THP-1 (acute monocytic leukemia), as well as one non-tumor cell line, MRC-5 (human fetal lung fibroblasts). The MRC-5 cells were used between 24 and 26 passages. The cells were cultured in two different types of media: DMEM (Gibco Thermo Fisher Scinetific Inc., Runcorn, UK) and RPMI 1640 (Gibco, Thermo Fisher Scinetific Inc., UK). Both media were supplemented with 2 mM glutamine, fetal bovine serum (10%; heat inactivated), and antibiotics (100 U penicillin and 0.1 mg streptomycin). RPMI 1640 was additionally supplemented with 10 mM HEPES and 1 mM sodium pyruvate. Cells growing in a monolayer were cultured in DMEM, while cells growing in suspension were cultured in RPMI 1640. Cells were grown in humidified atmosphere under the conditions of 37 °C/5% CO2 gas in a CO2 incubator (IGO 150 CELLlife^TM, JOUAN, Thermo Fisher Scientific, Waltham, MA, USA).
(§4) Growth-inhibitory activity was assessed using a slightly modified procedure based on the National Cancer Institute’s protocol. Briefly, cells were seeded in 96-well microtiter plates and incubated for 24 h. They were then treated with 10^−7 to 10^−4 M concentrations of the tested compounds for an additional 72 h. After the treatment period, the effects of the tested compounds on the growth rate of the cells were examined using the MTT assay. Absorbance was measured at 595 nm using a microplate reader. The IC50 value, which represents a 50% inhibition of cell growth, and QC calculation were performed using the GraphPadPrism software (La Jolla, USA), v. 5.03. and Excel software, Office 365. The selectivity index was calculated according to the following formula: SI=IC50 value of normal cell line/IC50 value of cancer cell line
(§5) The effect of each concentration was analyzed by plotting the logarithm of the concentration of the evaluated compound against the corresponding percentage inhibition value using least squares.

[9] = test system: THP-1 (acute monocytic leukemia); assay: Antiproliferative MTT assay, THP-1; assay type: cell-based, human; conditions: Homo sapiens, THP-1, 72 h, mean ± SD of three experiments
Procedure: as §3, §4, §5

HuT78 (T-cell lymphoma) [10] = assay: Antiproliferative MTT assay, Hut78; assay type: cell-based, human; conditions: Homo sapiens, HuT78, 72 h, mean ± SD of three experiments
Procedure: as §3, §4, §5

[11] = test system: HL-60 (acute promyelocytic leukemia); assay: Antiproliferative MTT assay, HL-60; assay type: cell-based, human; conditions: Homo sapiens, HL-60, 72 h, mean ± SD of three experiments
Procedure: as §3, §4, §5

[12] = test system: P. falciparum Dd2 (multiresistant), erythrocytic stage; assay: Antiplasmodial HRP2 assay, PfDd2; assay type: cell-based, Plasmodium falciparum; conditions: Plasmodium falciparum, DD2, 72 h; chloroquine-resistant strain, three days incubation, HRP2-ELISA, mean ± SD, n ≥ 2; read-out: IC50 PfDd2
Procedure: as §1, §2

[13] = test system: CaCo-2 (human colorectal adenocarcinoma); assay: Antiproliferative MTT assay, CaCo-2; assay type: cell-based; conditions: Homo sapiens, Caco-2, 72 h, mean ± SD of three experiments
Procedure: as §3, §4, §5

[14] = test system: HeLa (human cervical adenocarcinoma); assay: Antiproliferative MTT assay, HeLa; assay type: cell-based; conditions: Homo sapiens, HeLa, 72 h, mean ± SD of three experiments
Procedure: as §3, §4, §5

[15] = Antiproliferative MTT assay, whole panel of cell lines; assay type: cell-based; conditions: human, range over the cell lines tested, read-out: IC50 (cytotoxicity) across non-tumor and tumor cell lines
Procedure: as §3, with “Cells growing in a monolayer were cultured in DMEM, while cells growing in suspension were cultured in RPMI 1640. Cells were grown in humidified atmosphere under the conditions of 37 °C/5% CO2 gas in a CO2 incubator (IGO 150 CELLlife^TM, JOUAN, Thermo Fisher Scientific, Waltham, MA, USA).” left out
Growth-inhibitory activity was assessed using a slightly modified procedure based on the National Cancer Institute’s protocol. […] Absorbance was measured at 595 nm using a microplate reader. […] The selectivity index was calculated according to the following formula: SI=IC50 value of normal cell line/IC50 value of cancer cell line
as §5

| Compound | IC50 [7] [nM] | IC50 [9] [nM] | IC50 (HuT78 (T-cell lymphoma) [10]) [nM] | IC50 [11] [nM] | IC50 [12] [nM] | IC50 [13] [nM] | melting point | IC50 [14] [nM] | IC50 ([1]; ref [19]) [nM] | IC50 [2] [nM] | IC50 (HuT78 (T-cell lymphoma) [3]) [nM] | IC50 ([4]; ref [19]) [nM] | IC50 [5] [nM] | IC50 [6] [nM] | IC50 ([1]; ref [18]) [nM] | IC50 [8] [nM] | IC50 ([4]; ref [18]) [nM] | IC50 at 72 h [15] [nM] |
| --- | --- | --- | --- | --- | --- | --- | --- | --- | --- | --- | --- | --- | --- | --- | --- | --- | --- | --- |
| O=c1[nH]cc(F)c(=O)[nH]1 [Compound 5-FU, 5-fluorouracil] | – | – | – | – | – | – | – | – | 8200 | 76400 | > 100000 | 5900 | > 100000 | 54100 | – | – | – | – |
| N=C(NC1CCCC1)c1ccc2nc(-c3ccc(OCCNc4ccnc5cc(Cl)ccc45)cc3)[nH]c2c1 [Compound 10d] | 58.5 ± 5.9 | > 100000 | 92000 ± 6100 | > 100000 | 36.9 ± 17.7 | – | – | – | – | – | – | – | – | – | > 100000 | 99200 ± 8300 | > 100000 | – |
| COc1cc(-c2nc3ccc(Cl)cc3[nH]2)ccc1OCCNc1ccnc2cc(Cl)ccc12 [Compound 12b, 7-chloro-N-{[4-(5(6)-chloro-benzo[d]imidazole-2-yl)-2-methoxyphenoxy]ethyl}quinolin-4-amine] | 11.1 ± 0.3 | 6100 ± 6900 | 3700 ± 5200 | 3300 ± 1100 | 21.5 ± 2.5 | 4700 ± 4000 | 222 °C | 5600 ± 1300 | – | – | – | – | – | – | – | 3000 ± 1600 | – | – |
| COc1ccc2nc(-c3ccc(OCCNc4ccnc5cc(Cl)ccc45)c(OC)c3)[nH]c2c1 [Compound 12c, 7-chloro-N-{[4-(5(6)-methoxy-benzo[d]imidazole-2-yl)-2-methoxyphenoxy]ethyl}quinolin-4-amine] | 9.7 ± 0.2 | 3100 ± 800 | 2400 ± 1100 | 200 | 15.4 ± 2 | 2100 ± 300 | 218 to 219 °C | 2700 ± 200 | – | – | – | – | – | – | – | 1100 ± 800 | – | – |
| COc1ccc2nc(-c3ccc(OCCCNc4ccnc5cc(Cl)ccc45)cc3)[nH]c2c1 [Compound 13c] | 12.8 ± 0.5 | 2600 | 1100 ± 500 | 300 ± 200 | 11.9 ± 1.6 | 1000 ± 500 | 212 °C (dec.) | 200 ± 200 | – | – | – | – | – | – | – | 2700 ± 500 | – | – |
| COc1ccc2nc(-c3ccc(OCCCNc4ccnc5cc(Cl)ccc45)c(Br)c3)[nH]c2c1 [Compound 14c, N-{[2-bromo-4-(5(6)-methoxy-1H-benzo[d]imidazole-2-yl)phenoxy]propyl}-7-chloroquinolin-4-amine] | 11.4 ± 4 | 5200 ± 1800 | 600 ± 100 | 300 ± 100 | 11.8 ± 3.2 | 1600 ± 900 | 230 °C (dec.) | 800 ± 700 | – | – | – | – | – | – | – | 400 ± 100 | – | – |
| COc1cc(-c2nc3ccc(C(=N)NC4CCCC4)cc3[nH]2)ccc1OCCCNc1ccnc2cc(Cl)ccc12 [Compound 15d] | 28.7 ± 9.4 | 29600 ± 300 | 12800 ± 5500 | 19500 ± 1100 | 22.9 ± 4.3 | > 100000 | – | > 100000 | – | – | – | – | – | – | – | 95200 ± 9700 | – | 12800 to 100000 |

More lines, main results first:

| IC50 [7] [nM] | IC50 [9] [nM] | IC50 (HuT78 (T-cell lymphoma) [10]) [nM] | IC50 [11] [nM] | IC50 [12] [nM] | IC50 [13] [nM] | melting point | IC50 [14] [nM] | Compound | IC50 ([1]; ref [19]) [nM] | IC50 [2] [nM] | IC50 (HuT78 (T-cell lymphoma) [3]) [nM] | IC50 ([4]; ref [19]) [nM] | IC50 [5] [nM] | IC50 [6] [nM] | IC50 ([1]; ref [18]) [nM] | IC50 [8] [nM] | IC50 ([4]; ref [18]) [nM] | IC50 at 72 h [15] [nM] |
| --- | --- | --- | --- | --- | --- | --- | --- | --- | --- | --- | --- | --- | --- | --- | --- | --- | --- | --- |
| 2.6 ± 0.7 | 3000 ± 800 | 1600 ± 800 | 400 ± 200 | 4.8 ± 0.3 | 1100 ± 400 | 200 to 202 °C | 3000 ± 2300 | Clc1ccc2c(NCCCOc3ccc(-c4nc5ccccc5[nH]4)cc3)ccnc2c1 [Compound 13a] | – | – | – | – | – | – | – | 300 ± 200 | – | – |
| 2.4 ± 1.4 | 2100 ± 700 | 300 ± 200 | 200 ± 100 | 3.9 ± 1.1 | 1600 ± 400 | 198 to 200 °C | 600 ± 100 | Clc1ccc2c(NCCCOc3ccc(-c4nc5ccc(Cl)cc5[nH]4)cc3)ccnc2c1 [Compound 13b] | – | – | – | – | – | – | – | 400 ± 100 | – | – |
| 5 ± 1.4 | 6800 ± 3500 | 900 ± 600 | 400 ± 100 | 14.2 ± 1.2 | 1500 ± 1100 | 219 to 221 °C | 1500 ± 1000 | Clc1ccc2c(NCCCOc3ccc(-c4nc5ccc(Cl)cc5[nH]4)cc3Br)ccnc2c1 [Compound 14b, N-{[2-bromo-4-(5(6)-chloro-1H-benzo[d]imidazole-2-yl)phenoxy]propyl}-7-chloroquinolin-4-amine] | – | – | – | – | – | – | – | 2000 ± 1800 | – | – |
| 4.4 ± 0.3 | 2200 ± 500 | 1500 ± 300 | 400 ± 100 | 11.2 ± 0.5 | 800 ± 100 | 179 to 181 °C | 400 ± 100 | COc1cc(-c2nc3ccccc3[nH]2)ccc1OCCCNc1ccnc2cc(Cl)ccc12 [Compound 15a, N-{[4-(1H-benzo[d]imidazole-2-yl)-2-methoxyphenoxy]propyl}-7-chloroquinolin-4-amine] | – | – | – | – | – | – | – | 300 ± 100 | – | – |
| 4.7 ± 1.5 | 2500 ± 300 | 700 ± 400 | 200 ± 100 | 5.2 ± 0.5 | 1100 ± 600 | 190 to 192 °C | 300 ± 100 | COc1cc(-c2nc3ccc(Cl)cc3[nH]2)ccc1OCCCNc1ccnc2cc(Cl)ccc12 [Compound 15b, 7-chloro-N-{[4-(5(6)-chloro-benzo[d]imidazole-2-yl)-2-methoxyphenoxy]propyl}quinolin-4-amine] | – | – | – | – | – | – | – | 300 | – | – |
| 6.9 ± 1.7 | 2200 ± 300 | 700 ± 600 | 200 | 16.5 ± 5.7 | 1500 ± 300 | 220 °C (dec.) | 1200 ± 600 | COc1ccc2nc(-c3ccc(OCCCNc4ccnc5cc(Cl)ccc45)c(OC)c3)[nH]c2c1 [Compound 15c, 7-chloro-N-{[4-(5(6)-methoxy-benzo[d]imidazole-2-yl)-2-methoxyphenoxy]propyl}quinolin-4-amine] | – | – | – | – | – | – | – | 700 ± 600 | – | – |
